Measurements from patent US10815230B2, “Casein kinase 1 delta inhibitor” (ELECTROPHORETICS LIMITED, priority 2015, dated 2020).

Key:
PRP4 = PRP4 (Homo sapiens, UniProt Q13523); test: KINOMEscan binding assay; conditions: read-out: % Ctrl @ 10000 nM
BIKE = BIKE (Homo sapiens, UniProt Q9NSY1); test: KINOMEscan binding assay; conditions: read-out: % Ctrl @ 10000 nM
ZAK = molecular target: T1, ZAK (Homo sapiens, UniProt Q9NYL2); test: KINOMEscan binding assay; conditions: read-out: % Ctrl @ 10000 nM
T1 construct: purchased DiscoveRx (KINOMEscan, LeadHunter Discovery services)
T1 sequence (Q9NYL2 whole entry): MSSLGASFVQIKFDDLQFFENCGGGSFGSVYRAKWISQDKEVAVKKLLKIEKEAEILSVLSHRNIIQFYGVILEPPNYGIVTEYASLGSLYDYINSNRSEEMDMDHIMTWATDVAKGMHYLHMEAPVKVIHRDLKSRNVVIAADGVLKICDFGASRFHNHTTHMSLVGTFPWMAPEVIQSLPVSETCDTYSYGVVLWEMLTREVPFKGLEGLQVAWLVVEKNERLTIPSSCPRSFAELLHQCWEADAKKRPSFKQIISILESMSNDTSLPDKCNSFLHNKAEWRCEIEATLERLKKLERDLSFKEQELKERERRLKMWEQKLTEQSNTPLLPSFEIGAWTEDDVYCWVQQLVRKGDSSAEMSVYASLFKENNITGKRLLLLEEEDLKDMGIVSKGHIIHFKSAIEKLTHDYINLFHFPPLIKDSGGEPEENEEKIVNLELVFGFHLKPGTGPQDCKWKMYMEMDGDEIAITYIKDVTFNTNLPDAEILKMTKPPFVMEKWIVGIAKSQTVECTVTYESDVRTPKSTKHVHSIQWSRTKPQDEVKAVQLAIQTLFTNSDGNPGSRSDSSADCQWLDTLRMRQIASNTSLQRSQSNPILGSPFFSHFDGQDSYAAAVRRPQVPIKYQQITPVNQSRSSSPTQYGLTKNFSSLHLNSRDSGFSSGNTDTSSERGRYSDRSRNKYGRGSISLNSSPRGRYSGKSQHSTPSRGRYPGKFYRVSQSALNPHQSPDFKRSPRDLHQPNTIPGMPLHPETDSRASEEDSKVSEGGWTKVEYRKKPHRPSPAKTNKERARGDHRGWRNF

PAK7 = PAK7 (Homo sapiens, UniProt Q9P286); test: KINOMEscan binding assay; conditions: read-out: % Ctrl @ 10000 nM
AMPK-alpha1 = AMPK-alpha1 (Homo sapiens, UniProt Q13131); test: KINOMEscan binding assay; conditions: read-out: % Ctrl @ 10000 nM
Sequence of AMPK-alpha1 (Q13131 whole entry): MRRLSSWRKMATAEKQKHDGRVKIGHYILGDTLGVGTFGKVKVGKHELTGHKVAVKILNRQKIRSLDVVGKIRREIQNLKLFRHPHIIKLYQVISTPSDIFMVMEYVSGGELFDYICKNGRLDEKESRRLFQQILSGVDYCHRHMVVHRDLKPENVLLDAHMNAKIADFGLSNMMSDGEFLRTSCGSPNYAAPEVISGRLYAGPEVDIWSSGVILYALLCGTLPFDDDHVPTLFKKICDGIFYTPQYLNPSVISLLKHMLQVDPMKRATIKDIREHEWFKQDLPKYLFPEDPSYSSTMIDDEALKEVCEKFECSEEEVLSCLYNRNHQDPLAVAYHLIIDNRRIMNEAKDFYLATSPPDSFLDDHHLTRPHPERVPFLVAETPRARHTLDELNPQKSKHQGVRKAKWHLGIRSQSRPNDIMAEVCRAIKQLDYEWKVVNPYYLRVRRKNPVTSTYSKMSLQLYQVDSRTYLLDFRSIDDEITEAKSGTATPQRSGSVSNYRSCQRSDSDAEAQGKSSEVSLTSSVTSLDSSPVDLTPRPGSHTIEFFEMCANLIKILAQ

EGFR (G719C) = EGFR (G719C) (Homo sapiens, UniProt P00533, G719C); test: KINOMEscan binding assay; conditions: read-out: % Ctrl @ 10000 nM
IRAK3 = IRAK3 (Homo sapiens, UniProt Q9Y616); test: KINOMEscan binding assay; conditions: read-out: % Ctrl @ 10000 nM
PIK3CG = PIK3CG (Homo sapiens, UniProt P48736); test: KINOMEscan binding assay; conditions: read-out: % Ctrl @ 10000 nM
[1] = molecular target: JAK1 (JH2domain-pseudokinase) (Homo sapiens, UniProt P23458); test: KINOMEscan binding assay; conditions: read-out: % Ctrl @ 10000 nM
CAMK1D = CAMK1D (Homo sapiens, UniProt Q8IU85); test: KINOMEscan binding assay; conditions: read-out: % Ctrl @ 10000 nM
Sequence of CAMK1D (Q8IU85 whole entry): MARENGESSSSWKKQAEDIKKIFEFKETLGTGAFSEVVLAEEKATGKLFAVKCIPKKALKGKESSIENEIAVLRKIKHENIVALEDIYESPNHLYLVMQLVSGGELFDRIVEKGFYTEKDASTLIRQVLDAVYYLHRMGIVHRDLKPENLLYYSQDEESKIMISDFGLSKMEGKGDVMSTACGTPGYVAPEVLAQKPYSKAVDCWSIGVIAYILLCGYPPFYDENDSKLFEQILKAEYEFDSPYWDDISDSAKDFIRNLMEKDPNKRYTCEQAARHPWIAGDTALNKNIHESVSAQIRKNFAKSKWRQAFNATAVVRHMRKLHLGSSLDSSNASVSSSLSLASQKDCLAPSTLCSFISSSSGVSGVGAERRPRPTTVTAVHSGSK

SRPK1 = SRPK1 (Homo sapiens, UniProt Q96SB4); test: KINOMEscan binding assay; conditions: read-out: % Ctrl @ 10000 nM
PFTK1 = PFTK1 (Homo sapiens, UniProt O94921); test: KINOMEscan binding assay; conditions: read-out: % Ctrl @ 10000 nM
EPHB3 = EPHB3 (Homo sapiens, UniProt P54753); test: KINOMEscan binding assay; conditions: read-out: % Ctrl @ 10000 nM
CDC2L5 = CDC2L5 (Homo sapiens, UniProt Q14004); test: KINOMEscan binding assay; conditions: read-out: % Ctrl @ 10000 nM
FLT1 = FLT1 (Homo sapiens, UniProt P17948); test: KINOMEscan binding assay; conditions: read-out: % Ctrl @ 10000 nM
WNK1 = molecular target: T2, WNK1 (Homo sapiens, UniProt Q9H4A3); test: KINOMEscan binding assay; conditions: read-out: % Ctrl @ 10000 nM
T2 construct: purchased DiscoveRx (KINOMEscan, LeadHunter Discovery services)

PKNB M. tuberculosis = PKNB M. tuberculosis (Mycobacterium tuberculosis, UniProt P9WI81); test: biochemical; type: binding; conditions: read-out: % Ctrl @ 10000 nM
Sequence of PKNB M. tuberculosis (P9WI81 whole entry): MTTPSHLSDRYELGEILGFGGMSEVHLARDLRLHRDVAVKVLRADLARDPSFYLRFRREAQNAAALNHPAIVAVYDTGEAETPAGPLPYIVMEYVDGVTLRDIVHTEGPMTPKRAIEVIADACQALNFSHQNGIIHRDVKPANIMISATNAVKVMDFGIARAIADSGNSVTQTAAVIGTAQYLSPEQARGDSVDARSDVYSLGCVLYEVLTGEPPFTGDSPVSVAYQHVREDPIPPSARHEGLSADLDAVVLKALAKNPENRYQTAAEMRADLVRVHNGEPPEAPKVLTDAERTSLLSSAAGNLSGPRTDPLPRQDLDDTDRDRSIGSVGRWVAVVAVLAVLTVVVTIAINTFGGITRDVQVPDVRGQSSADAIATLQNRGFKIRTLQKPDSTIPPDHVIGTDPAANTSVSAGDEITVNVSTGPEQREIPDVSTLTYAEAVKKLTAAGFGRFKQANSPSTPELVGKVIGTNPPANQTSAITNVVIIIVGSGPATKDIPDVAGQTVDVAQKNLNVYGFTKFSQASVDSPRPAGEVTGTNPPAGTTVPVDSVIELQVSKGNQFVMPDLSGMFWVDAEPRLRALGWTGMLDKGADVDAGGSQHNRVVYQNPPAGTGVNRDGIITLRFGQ

LATS1 = LATS1 (Homo sapiens, UniProt O95835); test: KINOMEscan binding assay; conditions: read-out: % Ctrl @ 10000 nM
FRK = FRK (Homo sapiens, UniProt P42685); test: KINOMEscan binding assay; conditions: read-out: % Ctrl @ 10000 nM
MEK1 = MEK1 (Homo sapiens, UniProt Q02750); test: KINOMEscan binding assay; conditions: read-out: % Ctrl @ 10000 nM
[2] = molecular target: ABL1 (H396P) non-phosphorylated (Homo sapiens, UniProt P00519, H396P); test: KINOMEscan binding assay; conditions: read-out: % Ctrl @ 10000 nM
HepG2 cells = test: in vitro; conditions: human, 72 h
Procedure: (§1) The cytotoxicity screening panel was performed by Cyprotex® according to their established protocols. HepG2 cells were plated on 96-well tissue culture treated black walled clear bottomed polystyrene plates, 100 μL per well. The cells were dosed with compound A and comparative compound 324 (WO2012080727; 5-(1,3-benzoxazol-2-yl)-4-(pyridine-4-yl)pyrimidin-2-amine) amine) at […], 0.1 μM, 0.4 μM, 1.0 μM, 4.0 μM, 10 μM, 40 μM and 100 μM. At the end of the incubation period (72 h), the cells were loaded with the relevant dye/antibody for each cell health marker. The plates were then scanned using an automated fluorescent cellular imager, ArrayScan® VTI (Thermo Scientific Cellomics).
(§2) Cytotoxicity was assessed using a multiparametric approach using High Content Screening (HCS) O'Brien P and Haskins J R (2007) High Content Screening: A Powerful Approach to Systems Cell Biology and Drug Discovery Ed. Taylor et al.; 415-425). […] This assay scores compounds across direct and indirect measure of toxicity.

in vitro = conditions: human
Procedure: as §1, §2

PIP5K2C = PIP5K2C (Homo sapiens, UniProt Q8TBX8); test: KINOMEscan binding assay; conditions: read-out: % Ctrl @ 10000 nM
LCK = LCK (Homo sapiens, UniProt P06239); test: KINOMEscan binding assay; conditions: read-out: % Ctrl @ 10000 nM
DCAMKL3 = DCAMKL3 (Homo sapiens, UniProt Q9C098); test: KINOMEscan binding assay; conditions: read-out: % Ctrl @ 10000 nM
Sequence of DCAMKL3 (Q9C098 whole entry): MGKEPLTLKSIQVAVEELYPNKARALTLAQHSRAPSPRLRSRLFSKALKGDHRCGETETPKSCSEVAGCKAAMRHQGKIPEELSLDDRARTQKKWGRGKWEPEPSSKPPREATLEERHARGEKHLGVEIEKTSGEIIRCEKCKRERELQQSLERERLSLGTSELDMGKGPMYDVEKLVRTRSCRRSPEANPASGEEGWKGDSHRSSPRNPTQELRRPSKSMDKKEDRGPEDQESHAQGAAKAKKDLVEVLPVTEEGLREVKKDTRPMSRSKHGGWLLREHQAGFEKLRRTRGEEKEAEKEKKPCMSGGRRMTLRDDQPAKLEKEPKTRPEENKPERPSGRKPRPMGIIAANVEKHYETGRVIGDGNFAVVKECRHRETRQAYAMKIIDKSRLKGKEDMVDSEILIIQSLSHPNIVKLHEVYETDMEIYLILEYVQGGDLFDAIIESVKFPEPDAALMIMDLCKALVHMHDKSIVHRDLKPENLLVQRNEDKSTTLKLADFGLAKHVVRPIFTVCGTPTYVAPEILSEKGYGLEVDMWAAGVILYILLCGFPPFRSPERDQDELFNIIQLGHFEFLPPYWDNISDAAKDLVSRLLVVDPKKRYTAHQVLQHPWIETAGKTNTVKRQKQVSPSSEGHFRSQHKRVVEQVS

MRCKA = MRCKA (Homo sapiens, UniProt Q5VT25); test: KINOMEscan binding assay; conditions: read-out: % Ctrl @ 10000 nM
FLT3 (D835H) = FLT3 (D835H) (Homo sapiens, UniProt P36888, D835H); test: KINOMEscan binding assay; conditions: read-out: % Ctrl @ 10000 nM
CDKL3 = CDKL3 (Homo sapiens, UniProt Q8IVW4); test: KINOMEscan binding assay; conditions: read-out: % Ctrl @ 10000 nM
Sequence of CDKL3 (Q8IVW4 whole entry): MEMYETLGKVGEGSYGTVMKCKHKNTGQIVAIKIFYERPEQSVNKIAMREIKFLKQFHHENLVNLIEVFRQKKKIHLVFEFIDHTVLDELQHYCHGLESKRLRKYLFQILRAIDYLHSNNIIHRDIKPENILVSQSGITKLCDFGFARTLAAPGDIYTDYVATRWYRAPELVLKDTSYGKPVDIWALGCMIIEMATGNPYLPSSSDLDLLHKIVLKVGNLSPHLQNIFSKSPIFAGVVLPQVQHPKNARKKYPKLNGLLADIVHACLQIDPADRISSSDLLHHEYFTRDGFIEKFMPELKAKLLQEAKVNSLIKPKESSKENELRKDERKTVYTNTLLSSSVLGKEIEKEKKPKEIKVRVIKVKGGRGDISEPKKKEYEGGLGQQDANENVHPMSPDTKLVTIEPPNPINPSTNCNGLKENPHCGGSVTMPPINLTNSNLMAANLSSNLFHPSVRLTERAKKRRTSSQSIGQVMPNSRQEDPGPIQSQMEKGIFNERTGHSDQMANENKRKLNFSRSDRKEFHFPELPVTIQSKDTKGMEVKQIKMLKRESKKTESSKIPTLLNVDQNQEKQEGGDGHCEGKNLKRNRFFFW

[3] = molecular target: RSK4 Kin.Dom.1-N-terminal (Homo sapiens, UniProt Q9UK32); test: KINOMEscan binding assay; conditions: read-out: % Ctrl @ 10000 nM
[4] = molecular target: RSK1 Kin.Dom.1-N-terminal (Homo sapiens, UniProt Q15418); test: KINOMEscan binding assay; conditions: read-out: % Ctrl @ 10000 nM
Sequence of RSK1 Kin.Dom.1-N-terminal (Q15418 62-321 limits assumed): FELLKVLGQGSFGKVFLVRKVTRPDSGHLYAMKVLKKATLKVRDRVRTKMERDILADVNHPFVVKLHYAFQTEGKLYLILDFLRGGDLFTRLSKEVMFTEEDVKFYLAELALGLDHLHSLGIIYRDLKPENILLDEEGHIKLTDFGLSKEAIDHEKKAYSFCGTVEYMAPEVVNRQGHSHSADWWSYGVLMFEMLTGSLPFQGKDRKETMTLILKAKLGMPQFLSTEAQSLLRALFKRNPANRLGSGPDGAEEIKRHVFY

KIT (D816H) = KIT (D816H) (Homo sapiens, UniProt P10721, D816H); test: KINOMEscan binding assay; conditions: read-out: % Ctrl @ 10000 nM
FLT3 (K663Q) = FLT3 (K663Q) (Homo sapiens, UniProt P36888, K663Q); test: KINOMEscan binding assay; conditions: read-out: % Ctrl @ 10000 nM
PYK2 = PYK2 (Homo sapiens, UniProt Q14289); test: KINOMEscan binding assay; conditions: read-out: % Ctrl @ 10000 nM
Sequence of PYK2 (Q14289 whole entry): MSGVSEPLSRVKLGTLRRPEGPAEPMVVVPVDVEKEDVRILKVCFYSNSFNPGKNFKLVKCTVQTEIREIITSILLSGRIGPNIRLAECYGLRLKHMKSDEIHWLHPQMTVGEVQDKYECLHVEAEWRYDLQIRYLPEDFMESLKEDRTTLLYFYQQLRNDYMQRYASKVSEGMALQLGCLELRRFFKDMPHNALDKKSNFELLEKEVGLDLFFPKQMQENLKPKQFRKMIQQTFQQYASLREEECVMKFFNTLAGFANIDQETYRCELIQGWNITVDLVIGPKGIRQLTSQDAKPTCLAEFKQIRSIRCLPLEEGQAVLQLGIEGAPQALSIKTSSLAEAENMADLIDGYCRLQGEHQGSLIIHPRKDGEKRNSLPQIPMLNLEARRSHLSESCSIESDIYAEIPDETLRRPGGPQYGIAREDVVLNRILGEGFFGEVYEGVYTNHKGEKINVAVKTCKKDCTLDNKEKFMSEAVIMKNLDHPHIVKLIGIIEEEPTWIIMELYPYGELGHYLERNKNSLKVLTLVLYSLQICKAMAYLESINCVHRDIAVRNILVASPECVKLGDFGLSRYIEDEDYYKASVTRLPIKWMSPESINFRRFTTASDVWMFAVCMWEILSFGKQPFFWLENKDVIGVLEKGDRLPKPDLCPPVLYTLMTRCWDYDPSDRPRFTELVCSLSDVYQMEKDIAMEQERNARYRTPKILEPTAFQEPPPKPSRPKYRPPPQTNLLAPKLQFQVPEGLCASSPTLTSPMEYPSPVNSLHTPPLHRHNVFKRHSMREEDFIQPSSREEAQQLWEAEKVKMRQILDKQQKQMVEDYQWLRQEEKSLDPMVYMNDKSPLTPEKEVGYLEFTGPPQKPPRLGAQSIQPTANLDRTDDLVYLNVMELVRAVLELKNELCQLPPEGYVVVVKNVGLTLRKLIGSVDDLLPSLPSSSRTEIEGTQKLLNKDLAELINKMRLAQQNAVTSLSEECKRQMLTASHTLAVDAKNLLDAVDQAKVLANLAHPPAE

[5] = Cell membrane permeability AC50
[6] = Mitochondrial membrane potential AC50

Nc1ncc(-c2nc3ccccc3o2)c(-c2ccncc2)n1 [Comparative Compound 324, 5-(1,3-benzoxazol-2-yl)-4-(pyridine-4-yl)pyrimidin-2-amine] gave a remaining binding at 10 µM (PRP4) of 70%, a remaining binding at 10 µM (BIKE) of 100% and a remaining binding at 10 µM (ZAK) of 79%. It also gave a remaining binding at 10 µM (PAK7) of 96%, a remaining binding at 10 µM (AMPK-alpha1) of 98% and a remaining binding at 10 µM (EGFR (G719C)) of 64%. It also gave a remaining binding at 10 µM (IRAK3) of 90%, a remaining binding at 10 µM (PIK3CG) of 32% and a remaining binding at 10 µM [1] of 17%. For the same molecule, the remaining binding at 10 µM (CAMK1D) was 96%, the remaining binding at 10 µM (SRPK1) was 64% and the remaining binding at 10 µM (PFTK1) was 96%. For the same molecule, the remaining binding at 10 µM (EPHB3) was 95%, the remaining binding at 10 µM (CDC2L5) was 93% and the remaining binding at 10 µM (FLT1) was 91%. For the same molecule, the remaining binding at 10 µM (WNK1) was 81%, the remaining activity at 10 µM (PKNB M. tuberculosis) was 74% and the remaining binding at 10 µM (LATS1) was 100%. It also gave a remaining binding at 10 µM (FRK) of 100%, a remaining binding at 10 µM (MEK1) of 97% and a remaining binding at 10 µM [2] of 66%. For the same molecule, the “Cell membrane permeability MEC” value (HepG2 cells) was “(11.1↑) μM”, the “Cytochrome c MEC” value (HepG2 cells) was “(22.2↑) μM” and the “DNA structure MEC” value (HepG2 cells) was “(7.33↑) μM”. For the same molecule, the “Mitochondrial mass MEC” value (HepG2 cells) was “(16.8↓) μM”, the “Mitochondrial membrane potential MEC” value (HepG2 cells) was “(17.2↑) μM” and the AC50 at 72 h (in vitro; Cell Count AC50) was > 100 µM. The AC50 at 72 h (in vitro; [5]) was > 100 µM, the AC50 at 72 h (in vitro; Cytochrome c AC50) was 82 µM and the AC50 at 72 h (in vitro; DNA structure AC50) was > 100 µM. The AC50 at 72 h (in vitro; Mitochondrial mass AC50) was > 100 µM, the AC50 at 72 h (in vitro; [6]) was > 100 µM and the AC50 at 72 h (in vitro; Nuclear size AC50) was > 100 µM. It also gave a remaining binding at 10 µM (PIP5K2C) of 72%, a remaining binding at 10 µM (LCK) of 88% and a remaining binding at 10 µM (DCAMKL3) of 100%. It also gave a remaining binding at 10 µM (MRCKA) of 99%, a remaining binding at 10 µM (FLT3 (D835H)) of 68% and a remaining binding at 10 µM (CDKL3) of 100%. It also gave a remaining binding at 10 µM [3] of 85%, a remaining binding at 10 µM [4] of 86% and a remaining binding at 10 µM (KIT (D816H)) of 86%. It also gave a remaining binding at 10 µM (FLT3 (K663Q)) of 100% and a remaining binding at 10 µM (PYK2) of 100%.

CNc1c(C(N)=O)c2ccccn2c1C(=O)c1ccc(F)cc1 [Compound A, 2-methyl-amino-3-[(4-fluorophenyl)carbonyl]indolizine-1-carboxamide] gave a remaining binding at 10 µM (PRP4) of 90%, a remaining binding at 10 µM (BIKE) of 85% and a remaining binding at 10 µM (ZAK) of 92%. It also gave a remaining binding at 10 µM (PAK7) of 96%, a remaining binding at 10 µM (AMPK-alpha1) of 91% and a remaining binding at 10 µM (EGFR (G719C)) of 32%. It also gave a remaining binding at 10 µM (IRAK3) of 60%, a remaining binding at 10 µM (PIK3CG) of 79% and a remaining binding at 10 µM [1] of 71%. It also gave a remaining binding at 10 µM (CAMK1D) of 97%, a remaining binding at 10 µM (SRPK1) of 49% and a remaining binding at 10 µM (PFTK1) of 77%. It also gave a remaining binding at 10 µM (EPHB3) of 42%, a remaining binding at 10 µM (CDC2L5) of 89% and a remaining binding at 10 µM (FLT1) of 91%. For the same molecule, the remaining binding at 10 µM (WNK1) was 69%, the remaining activity at 10 µM (PKNB M. tuberculosis) was 86% and the remaining binding at 10 µM (LATS1) was 93%. For the same molecule, the remaining binding at 10 µM (FRK) was 58%, the remaining binding at 10 µM (MEK1) was 39% and the remaining binding at 10 µM [2] was 14%. The “Cell Count MEC” value (HepG2 cells) was 2.75↓ μM, the “Cell membrane permeability MEC” value (HepG2 cells) was 1.26↑ μM and the “DNA structure MEC” value (HepG2 cells) was 15.1↑ μM. The “Mitochondrial mass MEC” value (HepG2 cells) was 1.34↑ μM, the “Mitochondrial membrane potential MEC” value (HepG2 cells) was 3.31↓ μM and the “Nuclear size MEC” value (HepG2 cells) was 2.44↑ μM. For the same molecule, the AC50 at 72 h (in vitro; Cell Count AC50) was 7.88 µM, the AC50 at 72 h (in vitro; [5]) was > 40 µM and the AC50 at 72 h (in vitro; Cytochrome c AC50) was > 100 µM. For the same molecule, the AC50 at 72 h (in vitro; DNA structure AC50) was > 100 µM, the AC50 at 72 h (in vitro; Mitochondrial mass AC50) was > 40 µM and the AC50 at 72 h (in vitro; [6]) was 43.4 µM. For the same molecule, the AC50 at 72 h (in vitro; Nuclear size AC50) was 12.3 µM, the remaining binding at 10 µM (PIP5K2C) was 79% and the remaining binding at 10 µM (LCK) was 23%. For the same molecule, the remaining binding at 10 µM (DCAMKL3) was 100%, the remaining binding at 10 µM (MRCKA) was 94% and the remaining binding at 10 µM (FLT3 (D835H)) was 60%. The remaining binding at 10 µM (CDKL3) was 93%, the remaining binding at 10 µM [3] was 64% and the remaining binding at 10 µM [4] was 72%. For the same molecule, the remaining binding at 10 µM (KIT (D816H)) was 86%, the remaining binding at 10 µM (FLT3 (K663Q)) was 99% and the remaining binding at 10 µM (PYK2) was 100%.
